Assay results taken from patent US8946142B2, “Beta-arrestin effectors and compositions and methods of use thereof” (Trevena, Inc., priority 2012, dated 2015).
Where a SMILES comes first, the peptide text is derived from it. [ ]: non-standard residue; d: D form. Ac6c = NC1(C(=O)O)CCCCC1; Ac5c = NC1(C(=O)O)CCCC1; Sar = CNCC(=O)O

Legend:
Assay type in all cases: cell-based
[1] = biological target: T1, human AT1R (Homo sapiens, UniProt P30556); assay: IP1 accumulation assay (IP1 G-protein assay), human AT1R; conditions: for Emax: read-out: Span (relative to hAngII)
T1 sequence (P30556 1-359): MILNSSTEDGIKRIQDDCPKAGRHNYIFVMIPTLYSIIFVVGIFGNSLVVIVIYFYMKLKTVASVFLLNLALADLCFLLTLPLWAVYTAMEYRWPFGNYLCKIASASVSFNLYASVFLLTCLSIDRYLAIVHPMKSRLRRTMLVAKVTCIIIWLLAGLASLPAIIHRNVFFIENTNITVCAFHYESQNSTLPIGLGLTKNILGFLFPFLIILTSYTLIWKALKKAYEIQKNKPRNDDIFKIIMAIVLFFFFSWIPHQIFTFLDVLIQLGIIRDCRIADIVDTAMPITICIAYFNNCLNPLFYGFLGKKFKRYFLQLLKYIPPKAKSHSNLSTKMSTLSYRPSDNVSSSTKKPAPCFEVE
Procedure: (§1) A secondary measure of G protein coupling efficacy was also performed. IP3 is generated by activation of phospholipase C by Gα-q. IP3 is degraded to IP1, which can be forced to accumulate in cells by blocking degradation with lithium chloride. Thus we measured accumulation of IP1 to determine ligand efficacy for G protein activation.
(§2) IP1 accumulation generated by human and rat angiotensin 2 type 1 receptor (human AT1R and rat AT1aR, respectively) was measured with IP-One Tb kits purchased from Cisbio and used per the manufacturer's instructions. Clonal stably transfected cell lines expressing human AT1TR or rat AT1aR were used for all experiments.
(§3) For assays, 4,000-8,000 cells were seeded per well in 384-well small-volume microplates “HiBase” small-volume plate in volumes of 20 uL and allowed to grow overnight at 37° C. in 5% CO2. Cell growth media was then replaced with stimulation buffer supplied by Cisbio containing 50 mM lithium chloride. […] For agonist detection, peptides were then further diluted in stimulation buffer to add peptide to the cells to reach final concentrations ranging from 100 uM to 1 pM. Following addition of peptides, cells were incubated at 37° C. in 5% CO2 for 30 minutes and then lysed with 4 uL of pre-mixed HTRF IP-One reagents diluted per manufacturer's instructions (Cisbio). Microplates were incubated for 60-90 minutes at room temperature and then time-resolved fluorescence intensities were measured using a PHERAstar Plus microplate reader from BMG Labtech. IP1 accumulation was measured as change in ratio of time-resolved fluorescent intensities measured at 665 nm and 620 nm.

[2] = biological target: T2, rat AT1aR (Rattus norvegicus, UniProt P25095); assay: IP1 accumulation assay (IP1 G-protein assay), rat AT1aR; conditions: for Emax: read-out: Span (relative to hAngII)
T2 sequence (P25095 1-359): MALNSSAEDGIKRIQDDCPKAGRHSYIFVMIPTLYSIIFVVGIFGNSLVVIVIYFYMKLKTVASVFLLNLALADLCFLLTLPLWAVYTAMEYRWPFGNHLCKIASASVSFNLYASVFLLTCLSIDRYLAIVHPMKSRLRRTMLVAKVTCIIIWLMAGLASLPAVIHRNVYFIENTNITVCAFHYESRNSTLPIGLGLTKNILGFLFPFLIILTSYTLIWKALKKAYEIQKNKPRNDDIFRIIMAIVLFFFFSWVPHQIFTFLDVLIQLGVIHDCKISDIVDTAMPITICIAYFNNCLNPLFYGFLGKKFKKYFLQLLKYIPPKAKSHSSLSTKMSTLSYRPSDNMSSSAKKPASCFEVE
Procedure: as §1, §2, §3

[3] = biological target: T2, rat AT1aR; assay: beta-arrestin2 recruitment assay (PathHunter), rat AT1aR; conditions: for Emax: 1 h, read-out: Span (relative to hAngII)
Procedure: (§4) The proximal event in β-arrestin function mediated by GPCRs is recruitment to receptors following ligand binding and receptor phosphorylation by GRK's. Thus, the measure of β-arrestin recruitment was used to determine ligand efficacy for β-arrestin function.
(§5) B-arrestin-2 recruitment to the human and rat angiotensin 2 type 1 receptor (human AT1R and rat AT1aR, respectively) was measured with the PathHunter™ μl-arrestin assay (DiscoveRx Corporation, Fremont Calif.). Cells, plasmid(s), and detection reagent(s) were purchased from DiscoveRx, and assays were performed per manufacturer's instructions. Human AT1R and rat AT1aR were cloned into the pCMV-ProLink vector, verified by sequencing, and transfected into PathHunter β-arrestin HEK293 cells. Stably transfected clonal cell lines were selected with Hygromycin and G418. These clonal cell lines were used for all experiments.
(§6) For assays, 4,000-8,000 cells were seeded per well in 384-well microplates “HiBase” small-volume plate in volumes of 20 uL and grown overnight in the incubator (37° C., 5% CO2, saturated humidity). Peptides were dissolved in DMSO to a concentration of 10 mM. Peptides were then further diluted in assay buffer (Hank's balanced salt solution with 20 mM HEPES) to add peptide to the cells to reach final concentrations ranging from 100 μM to 1 pM. Cells were then incubated for 60 minutes at 37° C. in 5% CO2, followed by addition of 2 μL of PathHunter Detection Reagent to each well. The microplates were then incubated at room temperature for 60 minutes, and then luminescence was measured using a PHERAstar Plus microplate reader from BMG Labtech. B-arrestin-2 recruitment to receptors was measured as relative luminescence intensity expressed in arbitrary units.

[4] = biological target: T1, human AT1R; assay: beta-arrestin2 recruitment assay (PathHunter), human AT1R; conditions: for Emax: 1 h, read-out: Span (relative to hAngII)
Procedure: as §4, §5, §6

In the case of CNCC(=O)N[C@@H](CCCNC(=N)N)C(=O)N[C@H](C(=O)N[C@@H](Cc1ccc(O)cc1)C(=O)N1CCC[C@H]1C(=O)N[C@@H](Cc1c[nH]cn1)C(=O)N1CCC[C@H]1C(=O)N[C@H](C(=O)O)[C@@H](C)O)C(C)C [SEQ ID NO: 7, Sar-Arg-Val-Tyr-Pro-His-Pro-Thr] (H-[Sar]RVYPHPT-OH), the EC50 ([1]; read-out: EC50) is reported as greater than 10000 nM, the EC50 ([1]; read-out: pEC50 (converted)) is reported as greater than 0.631 nM and the EC50 ([2]; read-out: EC50) is reported as greater than 0.6 nM. The EC50 ([2]; read-out: pEC50 (converted)) was greater than 0.631 nM, the Emax [3] was less than 105% and the EC50 ([3]; read-out: EC50) was greater than 3.2 nM. It also gave an EC50 ([3]; read-out: pEC50 (converted)) greater than 3.16 nM, an Emax [4] of less than 101% and an EC50 ([4]; read-out: EC50) greater than 3.2 nM. It also gave an EC50 ([4]; read-out: pEC50 (converted)) greater than 3.16 nM.

Work on CNCC(=O)N[C@@H](CCCNC(=N)N)C(=O)N[C@H](C(=O)N[C@@H](Cc1ccc(O)cc1)C(=O)NC1(C(=O)N[C@@H](Cc2c[nH]cn2)C(=O)N2CCC[C@H]2C(=O)N[C@@H](CC(C)C)C(=O)O)CCCCC1)C(C)C [SEQ ID NO: 12, Sar-Arg-Val-Tyr-cyHex-His-Pro-Leu] (H-[Sar]RVY[Ac6c]HPL-OH) yielded an EC50 ([1]; read-out: EC50) greater than 1.3 nM, an Emax [1] of less than 103% and an EC50 ([1]; read-out: pEC50 (converted)) greater than 0.631 nM. For the same compound, the EC50 ([2]; read-out: EC50) was greater than 0.6 nM, the Emax [2] was less than 104% and the EC50 ([2]; read-out: pEC50 (converted)) was greater than 0.631 nM. The Emax [3] was less than 105%, the EC50 ([3]; read-out: EC50) was greater than 3.2 nM and the EC50 ([3]; read-out: pEC50 (converted)) was greater than 3.16 nM. For the same compound, the Emax [4] was less than 101%, the EC50 ([4]; read-out: EC50) was greater than 3.2 nM and the EC50 ([4]; read-out: pEC50 (converted)) was greater than 3.16 nM.

Work on CNCC(=O)N[C@@H](CCCNC(=N)N)C(=O)N[C@H](C(=O)N[C@@H](Cc1ccc(O)cc1)C(=O)N1CCC[C@H]1C(=O)N[C@@H](Cc1c[nH]cn1)C(=O)N1CCC[C@H]1C(=O)N[C@@H](CCSC)C(=O)O)C(C)C [SEQ ID NO: 9, Sar-Arg-Val-Tyr-Pro-His-Pro-Met] (H-[Sar]RVYPHPM-OH; N-terminus and C-terminus assumed) yielded an Emax [1] of less than 103%, an Emax [2] of less than 104% and an Emax [3] of less than 105%. For the same compound, the Emax [4] was less than 101%.

In the case of CNCC(=O)N[C@@H](CCCNC(=N)N)C(=O)N[C@H](C(=O)N[C@@H](Cc1ccc(O)cc1)C(=O)NC1(C(=O)N[C@@H](Cc2c[nH]cn2)C(=O)N2CCC[C@H]2C(=O)N[C@H](C)C(=O)O)CCCC1)C(C)C [SEQ ID NO: 59, Sar-Arg-Val-Tyr-cyPen-His-Pro-D-Ala], the “EC50 (nM)” value [1] is reported as “Inactive”, the pEC50 [1] is reported as “Inactive” and the EC50 ([2]; read-out: EC50) is reported as greater than 0.6 nM. For the same compound, the Emax [2] was less than 104%, the EC50 ([2]; read-out: pEC50 (converted)) was greater than 0.631 nM and the Emax [3] was less than 105%. For the same compound, the EC50 ([3]; read-out: EC50) was greater than 3.2 nM, the EC50 ([3]; read-out: pEC50 (converted)) was greater than 3.16 nM and the Emax [4] was less than 101%. For the same compound, the EC50 ([4]; read-out: EC50) was greater than 3.2 nM and the EC50 ([4]; read-out: pEC50 (converted)) was greater than 3.16 nM.

In the case of CNCC(=O)N[C@@H](CCCNC(=N)N)C(=O)N[C@H](C(=O)N[C@@H](Cc1ccc(O)cc1)C(=O)NC1(C(=O)N[C@@H](Cc2c[nH]cn2)C(=O)N2CCC[C@H]2C(=O)N[C@H](C(=O)O)C(C)C)CCCC1)C(C)C [SEQ ID NO: 20, Sar-Arg-Val-Tyr-cyPen-His-Pro-Val] (H-[Sar]RVY[Ac5c]HPV-OH), the EC50 ([1]; read-out: EC50) is reported as greater than 1.3 nM, the Emax [1] is reported as less than 103% and the EC50 ([1]; read-out: pEC50 (converted)) is reported as greater than 0.631 nM. For the same compound, the EC50 ([2]; read-out: EC50) was greater than 0.6 nM, the Emax [2] was less than 104% and the EC50 ([2]; read-out: pEC50 (converted)) was greater than 0.631 nM. It also gave an Emax [3] of less than 105%, an EC50 ([3]; read-out: EC50) greater than 3.2 nM and an EC50 ([3]; read-out: pEC50 (converted)) greater than 3.16 nM. It also gave an Emax [4] of less than 101%, an EC50 ([4]; read-out: EC50) greater than 3.2 nM and an EC50 ([4]; read-out: pEC50 (converted)) greater than 3.16 nM.

With CC[C@H](C)[C@H](NC(=O)[C@@H]1CCCN1C(=O)[C@H](Cc1c[nH]cn1)NC(=O)C1(NC(=O)[C@H](Cc2ccc(O)cc2)NC(=O)[C@@H](NC(=O)[C@H](CCCNC(=N)N)NC(=O)CNC)C(C)C)CCCC1)C(=O)O [SEQ ID NO: 18, Sar-Arg-Val-Tyr-cyPen-His-Pro-Ile] (H-[Sar]RVY[Ac5c]HPI-OH) the Emax [1] was less than 103%, the Emax [2] was less than 104% and the Emax [3] was less than 105%. It also gave an Emax [4] of less than 101%.
